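A five-concentration, 48-hour dose response in 96-well plates underlies each endpoint, interpolated linearly between surrounding concentrations. TGI: concentration producing complete growth inhibition.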
Columns and labels:
Test in all cases: NCI anticancer screen, dose series, 48 h
[1] = system: LOX IMVI melanoma
[2] = system: PC-3 prostate
[3] = system: UACC-257 melanoma
[4] = system: MCF7 breast
[5] = system: CAKI-1 renal
[6] = system: MDA-N
[7] = system: UACC-62 melanoma
[8] = system: NCI-H226 lung
[9] = system: SR leukemia
[10] = system: RPMI-8226 leukemia
[11] = system: MALME-3M melanoma
[12] = system: SF-295 CNS
[13] = system: OVCAR-3 ovarian
[14] = system: MDA-MB-231 breast
[15] = system: HT29 colon
[16] = system: COLO 205 colon
[17] = system: BT-549 breast
[18] = system: NCI-H460 lung
[19] = system: SF-268 CNS
[20] = system: M14 melanoma
[21] = system: HL-60(TB) leukemia
[22] = system: NCI-H522 lung
[23] = system: HOP-92 NSCLC
[24] = system: HOP-62 NSCLC
[25] = system: OVCAR-5 ovarian
[26] = system: NCI/ADR-RES ovarian
[27] = system: EKVX NSCLC
[28] = system: K-562 leukemia
[29] = system: DU-145 prostate
[30] = system: SK-MEL-2 melanoma
[31] = system: MDA-MB-435
[32] = system: NCI-H23 lung
[33] = system: SN12C renal
[34] = system: T-47D breast
[35] = system: SK-MEL-5 melanoma
[36] = system: SK-OV-3 ovarian
[37] = system: SF-539 CNS
[38] = system: 786-0 renal
[39] = system: UO-31 renal
[40] = system: HCT-116 colon
[41] = system: KM12 colon
[42] = system: OVCAR-8 ovarian
[43] = system: SK-MEL-28 melanoma
[44] = system: U251 CNS
[45] = system: OVCAR-4 ovarian
[46] = system: ACHN renal
[47] = system: MOLT-4 leukemia
[48] = system: A549 NSCLC
[49] = system: HCT-15 colon
[50] = system: SW-620 colon
[51] = system: SNB-19 CNS
[52] = system: IGROV1 ovarian
[53] = system: A498 renal
[54] = system: TK-10 renal
[55] = system: HS 578T breast
[56] = system: CCRF-CEM leukemia
[57] = system: RXF 393 renal
[58] = system: SNB-75 CNS
[59] = system: HCC-2998 colon

Measured: TGI

CC(CS(=O)(=O)Cc1ccccc1)C(N)=O (stereo not given)
not listed: [56] | [57] | [58] | [59]
> 100 µM: all other assays above

CN(C)CCCn1c2ccccc2c2cnccc21
30.2 µM: [16]
42.5 µM: [35]
83.9 µM: [47]
33 µM: [20]
83.3 µM: [11]
48.2 µM: [37]
71.6 µM: [10]
99.8 µM: [21]
43.4 µM: [9]
39.3 µM: [3]
52.6 µM: [1]
47.9 µM: [39]
74.6 µM: [33]
59.7 µM: [8]
67 µM: [18]
84.9 µM: [54]
not listed: [59]
> 100 µM: all other assays above

CC(=O)N[C@@H](Cc1ccc(O)cn1)C(=O)NCc1ccc2c(c1)OCO2
not listed: [14] | [58]
> 100 µM: all other assays above
